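Dose response: 5 concentrations. Exposure: 48 h. Format: 96-well plates. Endpoint: linear interpolation; highest concentration if not reached. At the GI50, growth is halved. TGI: total growth inhibition.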
How the values were obtained:
Assay in all cases: inhibition of tumour cell growth, NCI panel, 48 h
NCI/ADR-RES ovarian = test system: NCI/ADR-RES ovarian
SR leukemia = test system: SR leukemia
HCC-2998 colon = test system: HCC-2998 colon
HCT-116 colon = test system: HCT-116 colon
MCF7 breast = test system: MCF7 breast
MDA-MB-435 = test system: MDA-MB-435
SK-MEL-28 melanoma = test system: SK-MEL-28 melanoma
IGROV1 ovarian = test system: IGROV1 ovarian
M14 melanoma = test system: M14 melanoma
HT29 colon = test system: HT29 colon
PC-3 prostate = test system: PC-3 prostate
OVCAR-8 ovarian = test system: OVCAR-8 ovarian
U251 CNS = test system: U251 CNS
COLO 205 colon = test system: COLO 205 colon
A498 renal = test system: A498 renal
HOP-62 NSCLC = test system: HOP-62 NSCLC
SF-295 CNS = test system: SF-295 CNS
UO-31 renal = test system: UO-31 renal
HL-60(TB) leukemia = test system: HL-60(TB) leukemia
MDA-MB-231 breast = test system: MDA-MB-231 breast
LOX IMVI melanoma = test system: LOX IMVI melanoma
HCT-15 colon = test system: HCT-15 colon
NCI-H226 lung = test system: NCI-H226 lung
OVCAR-4 ovarian = test system: OVCAR-4 ovarian
NCI-H23 lung = test system: NCI-H23 lung
SNB-75 CNS = test system: SNB-75 CNS
SK-OV-3 ovarian = test system: SK-OV-3 ovarian
CCRF-CEM leukemia = test system: CCRF-CEM leukemia
RXF 393 renal = test system: RXF 393 renal
SF-268 CNS = test system: SF-268 CNS
A549 NSCLC = test system: A549 NSCLC
UACC-257 melanoma = test system: UACC-257 melanoma
HS 578T breast = test system: HS 578T breast
T-47D breast = test system: T-47D breast
TK-10 renal = test system: TK-10 renal
MDA-MB-468 breast = test system: MDA-MB-468 breast
SF-539 CNS = test system: SF-539 CNS
ACHN renal = test system: ACHN renal
CAKI-1 renal = test system: CAKI-1 renal
SNB-19 CNS = test system: SNB-19 CNS
SK-MEL-2 melanoma = test system: SK-MEL-2 melanoma
MALME-3M melanoma = test system: MALME-3M melanoma
NCI-H460 lung = test system: NCI-H460 lung
MOLT-4 leukemia = test system: MOLT-4 leukemia
786-0 renal = test system: 786-0 renal
HOP-92 NSCLC = test system: HOP-92 NSCLC
NCI-H522 lung = test system: NCI-H522 lung
RPMI-8226 leukemia = test system: RPMI-8226 leukemia
KM12 colon = test system: KM12 colon
SK-MEL-5 melanoma = test system: SK-MEL-5 melanoma
SW-620 colon = test system: SW-620 colon
EKVX NSCLC = test system: EKVX NSCLC
K-562 leukemia = test system: K-562 leukemia
SN12C renal = test system: SN12C renal
OVCAR-5 ovarian = test system: OVCAR-5 ovarian
BT-549 breast = test system: BT-549 breast
DU-145 prostate = test system: DU-145 prostate
UACC-62 melanoma = test system: UACC-62 melanoma
OVCAR-3 ovarian = test system: OVCAR-3 ovarian

N/C(=N\c1nc2ccccc2s1)NC(=O)Nc1ccc(Cl)cc1Cl
GI50 (NCI/ADR-RES ovarian): 269 nM | TGI (NCI/ADR-RES ovarian): 937 nM | GI50 (SR leukemia): 952 nM | GI50 (HCC-2998 colon): 978 nM | TGI (HCC-2998 colon): 2860 nM | GI50 (HCT-116 colon): 384 nM | TGI (HCT-116 colon): 1510 nM | GI50 (MCF7 breast): 309 nM | TGI (MCF7 breast): 1780 nM | GI50 (MDA-MB-435): 160 nM | TGI (MDA-MB-435): 510 nM | GI50 (SK-MEL-28 melanoma): 1040 nM | TGI (SK-MEL-28 melanoma): 5670 nM | GI50 (IGROV1 ovarian): 558 nM | TGI (IGROV1 ovarian): 2350 nM | GI50 (M14 melanoma): 390 nM | TGI (M14 melanoma): 1840 nM | GI50 (HT29 colon): 341 nM | TGI (HT29 colon): 1150 nM | GI50 (PC-3 prostate): 753 nM | TGI (PC-3 prostate): 3890 nM | GI50 (OVCAR-8 ovarian): 766 nM | TGI (OVCAR-8 ovarian): 4610 nM | GI50 (U251 CNS): 458 nM | TGI (U251 CNS): 1750 nM | GI50 (COLO 205 colon): 491 nM | TGI (COLO 205 colon): 1780 nM | GI50 (A498 renal): 1640 nM | TGI (A498 renal): 3730 nM | GI50 (HOP-62 NSCLC): 397 nM | TGI (HOP-62 NSCLC): 1810 nM | GI50 (SF-295 CNS): 334 nM | TGI (SF-295 CNS): 1310 nM | GI50 (UO-31 renal): 503 nM | TGI (UO-31 renal): 1960 nM | GI50 (HL-60(TB) leukemia): 295 nM | GI50 (MDA-MB-231 breast): 571 nM | TGI (MDA-MB-231 breast): 2180 nM | GI50 (LOX IMVI melanoma): 567 nM | TGI (LOX IMVI melanoma): 1960 nM | GI50 (HCT-15 colon): 379 nM | TGI (HCT-15 colon): 1980 nM | GI50 (NCI-H226 lung): 948 nM | TGI (NCI-H226 lung): 2680 nM | GI50 (OVCAR-4 ovarian): 1530 nM | TGI (OVCAR-4 ovarian): 5070 nM | GI50 (NCI-H23 lung): 835 nM | TGI (NCI-H23 lung): 2440 nM | GI50 (SNB-75 CNS): 230 nM | TGI (SNB-75 CNS): 997 nM | GI50 (SK-OV-3 ovarian): 434 nM | TGI (SK-OV-3 ovarian): 2210 nM | GI50 (CCRF-CEM leukemia): 360 nM | TGI (CCRF-CEM leukemia): 3800 nM | GI50 (RXF 393 renal): 357 nM | TGI (RXF 393 renal): 1690 nM | GI50 (SF-268 CNS): 1160 nM | TGI (SF-268 CNS): 23000 nM | GI50 (A549 NSCLC): 878 nM | TGI (A549 NSCLC): 2840 nM | GI50 (UACC-257 melanoma): 2070 nM | TGI (UACC-257 melanoma): 17700 nM | GI50 (HS 578T breast): 289 nM | TGI (HS 578T breast): 2430 nM | GI50 (T-47D breast): 421 nM | TGI (T-47D breast): 6420 nM | GI50 (TK-10 renal): 1910 nM | TGI (TK-10 renal): 4280 nM | GI50 (MDA-MB-468 breast): 271 nM | TGI (MDA-MB-468 breast): 788 nM | GI50 (SF-539 CNS): 261 nM | TGI (SF-539 CNS): 842 nM | GI50 (ACHN renal): 574 nM | TGI (ACHN renal): 2080 nM | GI50 (CAKI-1 renal): 389 nM | TGI (CAKI-1 renal): 2210 nM | GI50 (SNB-19 CNS): 672 nM | TGI (SNB-19 CNS): 5540 nM | GI50 (SK-MEL-2 melanoma): 351 nM | TGI (SK-MEL-2 melanoma): 1170 nM | GI50 (MALME-3M melanoma): 454 nM | TGI (MALME-3M melanoma): 2130 nM | GI50 (NCI-H460 lung): 419 nM | TGI (NCI-H460 lung): 1510 nM | GI50 (MOLT-4 leukemia): 536 nM | GI50 (786-0 renal): 456 nM | TGI (786-0 renal): 1760 nM | GI50 (HOP-92 NSCLC): 923 nM | TGI (HOP-92 NSCLC): 3910 nM | GI50 (NCI-H522 lung): 194 nM | TGI (NCI-H522 lung): 787 nM | GI50 (RPMI-8226 leukemia): 1120 nM | TGI (RPMI-8226 leukemia): 8960 nM | GI50 (KM12 colon): 439 nM | TGI (KM12 colon): 3600 nM | GI50 (SK-MEL-5 melanoma): 352 nM | TGI (SK-MEL-5 melanoma): 1710 nM | GI50 (SW-620 colon): 455 nM | TGI (SW-620 colon): 2460 nM | GI50 (EKVX NSCLC): 489 nM | TGI (EKVX NSCLC): 2660 nM | GI50 (K-562 leukemia): 370 nM | GI50 (SN12C renal): 566 nM | TGI (SN12C renal): 2210 nM | GI50 (OVCAR-5 ovarian): 948 nM | TGI (OVCAR-5 ovarian): 3090 nM | GI50 (BT-549 breast): 414 nM | TGI (BT-549 breast): 5040 nM | GI50 (DU-145 prostate): 1000 nM | TGI (DU-145 prostate): 3060 nM | GI50 (UACC-62 melanoma): 374 nM | TGI (UACC-62 melanoma): 3200 nM | GI50 (OVCAR-3 ovarian): 359 nM | TGI (OVCAR-3 ovarian): 1340 nM

From PubChem BioAssay (NCI)
